Experimental data: ChEMBL document CHEMBL4433252, “Bypassing lantibiotic resistance by an effective nisin derivative” (Bioorg Med Chem, 2019)
Converted amounts (≈) assume the structure as drawn. The source made the active and inactive calls. No cut-off for these calls is given here.

Tests used:
[1] = system: Enterococcus faecalis; test: Antibacterial activity against Enterococcus faecalis ATCC 29212 assessed as reduction in cell viability incubated overnight; format: functional
[2] = system: Lactococcus lactis; test: Induction of pore formation in Lactococcus lactis NZ9000 transfected with Streptococcus agalactiae COH1 NSR assessed as increase in florescence intensity at 30 nM measured after 100 secs by sytox green-based fluorescence assay; format: functional, organism-based
[3] = system: Enterococcus faecalis; test: Potency index, ratio of MIC for nisin to MIC for test compound for antibacterial activity against Enterococcus faecalis ATCC 29212 assessed as reduction in cell viability incubated overnight; format: functional
[4] = system: Lactococcus lactis; test: Growth inhibition of Lactococcus lactis NZ9000 transfected with Streptococcus agalactiae COH1 NSR S236A mutant incubated for 5 hrs by spectrophotometry; format: functional, organism-based; conditions: NZ9000, 5 h
[5] = system: Lactococcus lactis; test: Growth inhibition of Lactococcus lactis NZ9000 transfected with pNZ-Erm plasmid incubated for 5 hrs by spectrophotometry; format: functional, organism-based; conditions: NZ9000, 5 h
[6] = system: Staphylococcus aureus; test: Potency index, ratio of MIC for nisin to MIC for test compound for antibacterial activity against Staphylococcus aureus ATCC 29213 assessed as reduction in cell viability incubated overnight; format: functional
[7] = system: Lactococcus lactis; test: (§1) Resistance index, ratio of IC50 for growth inhibition of Lactococcus lactis NZ9000 transfected with Streptococcus agalactiae COH1 NSR incubated for 5 hrs by spectrophotometry to IC50 for growth inhibition of Lactococcus lactis NZ9000 transfected with pNZ-Erm plasmid incubated for 5 hrs by spectrophotometry; format: functional
[8] = system: Staphylococcus aureus; test: Antibacterial activity against Staphylococcus aureus ATCC 29213 assessed as reduction in cell viability incubated overnight; format: functional
[9] = system: Lactococcus lactis; test: Growth inhibition of Lactococcus lactis NZ9000 transfected with Streptococcus agalactiae COH1 NSR incubated for 5 hrs by spectrophotometry; format: functional, organism-based; conditions: NZ9000, 5 h
[10] = system: Lactococcus lactis; test: as §1, with “NSR S236A mutant” for “NSR”; format: functional

SMILES: C=C(NC(=O)[C@@H](NC(=O)[C@H](Cc1cnc[nH]1)NC(=O)[C@@H](NC(=O)[C@H](CO)NC(=O)[C@@H]1CCCN1C(=O)[C@H](Cc1cnc[nH]1)NC(=O)[C@@H]1CS[C@@H](C)[C@H](NC(=O)[C@H](CCCCN)NC(=O)[C@H](CCSC)NC(=O)[C@H](CC(N)=O)NC(=O)[C@@H]2CS[C@@H](C)[C@H](NC(=O)[C@H](CCCCN)NC(=O)[C@@H]3CS[C@@H](C)[C@H](NC(=O)[C@@H]4CSC[C@H](NC(=O)/C(=C/C)NC(=O)[C@@H](N)[C@@H](C)CC)C(=O)N[C@@H]([C@@H](C)CC)C(=O)NC(=C)C(=O)N[C@@H](CC(C)C)C(=O)N4)C(=O)N4CCC[C@H]4C(=O)NCC(=O)N3)C(=O)NCC(=O)N[C@@H](C)C(=O)N[C@@H](CC(C)C)C(=O)N[C@@H](CCSC)C(=O)NCC(=O)N2)C(=O)N[C@@H](C)C(=O)N[C@@H](CC)C(=O)N1)[C@@H](C)CC)C(C)C)C(=O)N[C@@H](CCCCN)C(=O)O
- MIC [1]: 10.6 µM (≈ 35.6 µg/mL)
- Activity [2]: Active
- Ratio [3]: 7.8
- IC50 [4]: 24.1 nM
- IC50 [5]: 5.5 nM
- Ratio [6]: 7.8
- Ratio IC50 [7]: 3.5
- MIC [8]: 10.6 µM (≈ 35.6 µg/mL)
- IC50 [9]: 22.5 nM
- Ratio IC50 [10]: 3.5
